Assay results published in patent publication US4664850A, “Novel radioactive steroids” (Roussel Uclaf, priority 1983, dated 1987).

Tests used:
[1] = tested on: glucocorticoid receptors; experiment: Selectivity of fixation on steroid receptors; type: binding; conditions: compared with similar non-radioactive products
Source text: 651-665 (1981)]. Otherwise, other natural or synthetic corticoids which are used for this type of experiment, simultaneously fix on other steroid receptors and particularly on mineralocorticoid receptors. However, during such experiments with non-radioactive 6-methyl-17α-(prop-1-ynyl)-Δ^1,4,6 -androstatriene-11β,17β-diol-3-one, particularly when the tissues […] examined included simultaneously glucocorticoid and mineralocorticoid receptors, it was often necessary to adopt a succession of long and complicated methods.
Because of the radioactivity of the products of formula I, it is much easier to reveal the existence of the glucocorticoid receptors in the tissues of organs when mineralocorticoid receptors are also present, thanks to the use of the usual methods of liaison measurements taking advantage of radioactive products. In addition, what was not possible with a non-radioactive product, such, for example, as determining of the number of sites of fixation of the glucocorticoid receptors, becomes realizable by the use of the products of formula I.

[2] = Stability and metabolism under in vitro incubation conditions; type: in vitro ADME; conditions: for metabolism in vitro in certain tissues: working in vitro, incubation conditions
Method: (§1) (d) At 0° C. and 15° C., product A forms complexes with thymus glucocorticoid receptors which are stable for at least 24 hours. […] For this reason, it permits the total number of glucocorticoid fixation sites to be determined in different physiological conditions.

[3] = tested on: glucocorticoid receptors of the hippocampus; experiment: Dissociation from glucocorticoid receptors of hippocampus cytosol; type: binding
[4] = tested on: plasmatic proteins; experiment: Specific fixation on plasmatic proteins; type: binding; conditions: animals or humans
[5] = target: T1, glucocorticoid receptors of cytosol of rat thymus (Rattus norvegicus, UniProt P06536); experiment: Fixation on glucocorticoid receptors of rat thymus cytosol (carbon-dextran adsorption); type: binding
T1 construct: carbon-dextran adsorption
T1 sequence (P06536 1-795): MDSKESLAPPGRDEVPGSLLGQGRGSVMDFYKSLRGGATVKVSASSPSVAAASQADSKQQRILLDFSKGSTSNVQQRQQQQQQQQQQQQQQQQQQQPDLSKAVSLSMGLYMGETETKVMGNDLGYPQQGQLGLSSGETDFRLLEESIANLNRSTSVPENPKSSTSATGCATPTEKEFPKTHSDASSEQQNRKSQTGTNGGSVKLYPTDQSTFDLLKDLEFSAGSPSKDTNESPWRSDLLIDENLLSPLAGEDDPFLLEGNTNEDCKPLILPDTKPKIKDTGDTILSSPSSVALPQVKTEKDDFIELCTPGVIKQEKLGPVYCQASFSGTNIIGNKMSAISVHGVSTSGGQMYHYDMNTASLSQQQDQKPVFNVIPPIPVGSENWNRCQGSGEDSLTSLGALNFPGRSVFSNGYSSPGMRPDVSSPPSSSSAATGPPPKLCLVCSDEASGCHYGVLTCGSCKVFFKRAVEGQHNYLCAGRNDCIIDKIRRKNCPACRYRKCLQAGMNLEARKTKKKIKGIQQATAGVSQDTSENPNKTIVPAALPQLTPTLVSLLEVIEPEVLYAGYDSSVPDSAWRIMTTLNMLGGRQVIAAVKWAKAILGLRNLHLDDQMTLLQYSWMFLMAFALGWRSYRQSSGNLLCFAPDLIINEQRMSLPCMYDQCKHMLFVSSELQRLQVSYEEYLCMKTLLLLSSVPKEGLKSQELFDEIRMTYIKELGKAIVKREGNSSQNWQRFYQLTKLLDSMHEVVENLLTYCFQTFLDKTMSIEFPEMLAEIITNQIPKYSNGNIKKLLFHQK
Method: as §1

[6] = tested on: glucocorticoid receptors; conditions: versus other steroid receptors, particularly mineralocorticoid; TEUTSCH et al. 1981; cited from earlier work
[7] = 0° C. and 15° C., 24 hours, thymus receptor incubation

With [3H]C([3H])([3H])C1=CC2C(C(O)CC3(C)C2CCC3(O)C#CC)C2(C)C=CC(=O)C=C12 (stereo not drawn) [Product A, 6-methyl-^3 H3-17α-(prop-1-ynyl)-Δ^1,4,6-androstatriene-11β,17β-diol-3-one] the “selective reactivity in respect of the glucocorticoid receptors” value [1] was “the same selective reactivity”, the loss of tritium [2, 7] was “does not show any loss of tritium” and the “metabolism under incubation conditions” value [2, 7] was “is not subject to metabolism”. The “shape of dissociation curve” value [3] was “a curve with one slope”, the “specific fixation on plasmatic proteins” value [4] was “does not give rise to any specific fixation” and the non-specific fixation ([5]; 0° C. and 15° C., 24 hours) was “only shows a weak non-specific fixation”. The “constant of association (Ka)” value ([5]; 0° C., rat thymus cytosol, adsorption by carbon-dextran) was ~10^9 M^-1, the “constant of association relative to dexamethazone” value ([5]; 0° C., rat thymus cytosol, compared with dexamethazone) was “about twice as high as that of dexamethazone” and the “stability of complexes with thymus glucocorticoid receptors” value ([5]; at 0° C. and 15° C.) was “at least 24 hours”. The “replacement of non-radioactive corticosterone and cortisol fixed on glucocorticoid receptors” value ([5]; incubation at 15° C. for 24 hours) was “totally replaces”, the “shape of dissociation curve” value ([5]; thymus) was “a curve with one slope” and the “speed of association (K+1)” value ([5]; towards the glucocorticoid receptors) was ~10^6 M^-1 mn^-1.
In the case of “^3 H-corticosterone [reference compound]”, the “shape of dissociation curve” value [3] is reported as “a dissociation curve with two slopes”.
In the case of CC#CC1(O)CCC2C3C=C(C)C4=CC(=O)C=CC4(C)C3C(O)CC21C (stereo not drawn) [6-methyl-17α-(prop-1-ynyl)-Δ^1,4,6-androstatriene-11β,17β-diol-3-one], the “selectivity of fixation on glucocorticoid receptors” value [6] is given as “fixes selectively on the glucocorticoid receptors”.
For C[C@]12C[C@H](O)[C@H]3[C@@H](CCC4=CC(=O)CC[C@@]43C)[C@@H]1CC[C@@H]2C(=O)CO [corticosterone, reference compound], the “metabolism in vitro in certain tissues” value [2] was “are metabolized in certain tissues”.
With C[C@]12CCC(=O)C=C1CC[C@@H]1[C@@H]2[C@@H](O)C[C@@]2(C)[C@H]1CC[C@]2(O)C(=O)CO [cortisol, reference compound] the “metabolism in vitro in certain tissues” value [2] was “are metabolized in certain tissues”.
